Species on record: Rattus norvegicus
Assay: Open TG-GATES - Regimen: Single
Type: toxicity, organism-based, Sprague-Dawley
Parameters: regimen Single, gender Male, age 6 weeks
Details: in vivo, po, 0 mg/kg, route gavage, dose level Control; for APTT / Bas / Eos / Fbg / Hb / Ht / Lym / MCH / MCHC / MCV / Mono / Neu / PT / Plat / RBC / Ret / WBC: tissue Blood; for KIDNEY_L / KIDNEY_R / KIDNEY_TOTAL: tissue Kidney; for LIVER: tissue Liver; for A/G / ALP / ALT / AST / BUN / CRE / Ca / Cl / DBIL / GLC / IP / K / LDH / Na / PL / RALB / TBIL / TC / TG / TP / gamma-GTP: tissue Plasma

SMILES: NNC(=O)c1ccncc1 [ISONIAZID]
- TERMINAL_BW (3 h): 225.5 g
- APTT (3 h): 18.5 s
- Bas (3 h): 0%
- Eos (3 h): 1%
- Fbg (3 h): 232.2 mg/dL
- Hb (3 h): 13.5 g/dL
- Ht (3 h): 37.8%
- Lym (3 h): 80%
- MCH (3 h): 21.5 pg
- MCHC (3 h): 35.7%
- MCV (3 h): 60.3 fL
- Mono (3 h): 3%
- Neu (3 h): 15.6%
- PT (3 h): 11.8 s
- Plat (3 h): 121.9 x10_4/uL
- RBC (3 h): 627.2 x10_4/ul
- Ret (3 h): 8.1%
- WBC (3 h): 82.1 x10_2/uL
- KIDNEY_L (3 h): 1 g
- KIDNEY_R (3 h): 0.9 g
- KIDNEY_TOTAL (3 h): 1.9 g
- LIVER (3 h): 10.5 g
- A/G (3 h): 1.5
- ALP (3 h): 945.2 IU/L
- ALT (3 h): 34.2 IU/L
- AST (3 h): 66 IU/L
- BUN (3 h): 10 mg/dL
- CRE (3 h): 0.4 mg/dL
- Ca (3 h): 10.9 mg/dL
- Cl (3 h): 104.2 meq/L
- DBIL (3 h): 0.066 mg/dL
- GLC (3 h): 195.6 mg/dL
- IP (3 h): 8.8 mg/dL
- K (3 h): 4.1 meq/L
- LDH (3 h): 160 IU/L
- Na (3 h): 141.8 meq/L
- PL (3 h): 148.2 mg/dL
- RALB (3 h): 3.3 g/dL
- TBIL (3 h): 0.1 mg/dL
- TC (3 h): 80.8 mg/dL
- TG (3 h): 90.6 mg/dL
- TP (3 h): 5.5 g/dL
- gamma-GTP (3 h): 1.2 IU/L
- TERMINAL_BW (6 h): 221.6 g
- APTT (6 h): 19.9 s
- Bas (6 h): 0%
- Eos (6 h): 1%
- Fbg (6 h): 230 mg/dL
- Hb (6 h): 13.5 g/dL
- Ht (6 h): 37.6%
- Lym (6 h): 80.8%
- MCH (6 h): 21.8 pg
- MCHC (6 h): 35.8%
- MCV (6 h): 60.9 fL
- Mono (6 h): 3%
- Neu (6 h): 14.6%
- PT (6 h): 12.3 s
- Plat (6 h): 125.3 x10_4/uL
- RBC (6 h): 618.4 x10_4/ul
- Ret (6 h): 8%
- WBC (6 h): 96.3 x10_2/uL
- KIDNEY_L (6 h): 1 g
- KIDNEY_R (6 h): 0.9 g
- KIDNEY_TOTAL (6 h): 1.9 g
- LIVER (6 h): 9.2 g
- A/G (6 h): 1.6
- ALP (6 h): 976.8 IU/L
- ALT (6 h): 31.2 IU/L
- AST (6 h): 64.8 IU/L
- BUN (6 h): 8.8 mg/dL
- CRE (6 h): 0.4 mg/dL
- Ca (6 h): 10.4 mg/dL
- Cl (6 h): 104.2 meq/L
- DBIL (6 h): 0.068 mg/dL
- GLC (6 h): 197.6 mg/dL
- IP (6 h): 9.8 mg/dL
- K (6 h): 4.1 meq/L
- LDH (6 h): 156.6 IU/L
- Na (6 h): 141.2 meq/L
- PL (6 h): 133.8 mg/dL
- RALB (6 h): 3.3 g/dL
- TBIL (6 h): 0.1 mg/dL
- TC (6 h): 78.4 mg/dL
- TG (6 h): 52.8 mg/dL
- TP (6 h): 5.4 g/dL
- gamma-GTP (6 h): 1.2 IU/L
- TERMINAL_BW (9 h): 220.2 g
- APTT (9 h): 17.3 s
- Bas (9 h): 0%
- Eos (9 h): 0.8%
- Fbg (9 h): 221.8 mg/dL
- Hb (9 h): 13.5 g/dL
- Ht (9 h): 37.7%
- Lym (9 h): 79.2%
- MCH (9 h): 21.8 pg
- MCHC (9 h): 35.7%
- MCV (9 h): 61.1 fL
- Mono (9 h): 2%
- Neu (9 h): 16.6%
- PT (9 h): 12.5 s
- Plat (9 h): 120.7 x10_4/uL
- RBC (9 h): 617.4 x10_4/ul
- Ret (9 h): 7.7%
- WBC (9 h): 101.6 x10_2/uL
- KIDNEY_L (9 h): 0.9 g
- KIDNEY_R (9 h): 0.9 g
- KIDNEY_TOTAL (9 h): 1.9 g
- LIVER (9 h): 8.6 g
- A/G (9 h): 1.7
- ALP (9 h): 780 IU/L
- ALT (9 h): 31.4 IU/L
- AST (9 h): 70 IU/L
- BUN (9 h): 9.6 mg/dL
- CRE (9 h): 0.4 mg/dL
- Ca (9 h): 10.5 mg/dL
- Cl (9 h): 104.6 meq/L
- DBIL (9 h): 0.066 mg/dL
- GLC (9 h): 200.6 mg/dL
- IP (9 h): 9.7 mg/dL
- K (9 h): 3.8 meq/L
- LDH (9 h): 237.4 IU/L
- Na (9 h): 142.2 meq/L
- PL (9 h): 137.6 mg/dL
- RALB (9 h): 3.4 g/dL
- TBIL (9 h): 0.1 mg/dL
- TC (9 h): 74.8 mg/dL
- TG (9 h): 54.6 mg/dL
- TP (9 h): 5.4 g/dL
- gamma-GTP (9 h): 1 IU/L
- TERMINAL_BW (24 h): 234.8 g
- APTT (24 h): 18.6 s
- Bas (24 h): 0.4%
- Eos (24 h): 1.2%
- Fbg (24 h): 217.8 mg/dL
- Hb (24 h): 13.8 g/dL
- Ht (24 h): 38%
- Lym (24 h): 76%
- MCH (24 h): 22.6 pg
- MCHC (24 h): 36.2%
- MCV (24 h): 62.3 fL
- Mono (24 h): 2.8%
- Neu (24 h): 19.2%
- PT (24 h): 11.5 s
- Plat (24 h): 127.6 x10_4/uL
- RBC (24 h): 610 x10_4/ul
- Ret (24 h): 7.2%
- WBC (24 h): 106 x10_2/uL
- KIDNEY_L (24 h): 1 g
- KIDNEY_R (24 h): 1 g
- KIDNEY_TOTAL (24 h): 2 g
- LIVER (24 h): 10.9 g
- A/G (24 h): 1.6
- ALP (24 h): 930.6 IU/L
- ALT (24 h): 34 IU/L
- AST (24 h): 68.8 IU/L
- BUN (24 h): 14.8 mg/dL
- CRE (24 h): 0.4 mg/dL
- Ca (24 h): 10.9 mg/dL
- Cl (24 h): 103.8 meq/L
- DBIL (24 h): 0.058 mg/dL
- GLC (24 h): 191 mg/dL
- IP (24 h): 7.7 mg/dL
- K (24 h): 4.2 meq/L
- LDH (24 h): 190.8 IU/L
- Na (24 h): 141.8 meq/L
- PL (24 h): 154 mg/dL
- RALB (24 h): 3.5 g/dL
- TBIL (24 h): 0.1 mg/dL
- TC (24 h): 80 mg/dL
- TG (24 h): 114 mg/dL
- TP (24 h): 5.6 g/dL
- gamma-GTP (24 h): 1 IU/L
